Assay results taken from patent publication US20220370385A1, “COMPOSITIONS FOR USE IN INHIBITING SRC KINASE AND TREATING AND PREVENTING ASSOCIATED DISORDERS” (Enzene Biosciences Ltd., priority 2019, published 2022).

Test system: MDA-MB-468 cells
Experiment: MDA-MB-468 cell viability, CellTiter-Glo, 24 hrs
Format: cell-based, human
Details: 24 hrs incubation
Experimental: MDA-MB-468 cells, isolated from a pleural effusion of a patient with metastatic adenocarcinoma of the breast, is a triple negative breast cancer (TNBC) cell line. The IC 50 value of E05 or lapatinib (Sigma) or the structural analogues of E05 were tested in this cell line.
Briefly, MDA-MB-468 cells (ATCC #HTB-32) were seeded with a density of 5,000 cells per well in a 96 well white plate (Costar Cat #3917) in DMEM media supplemented with 10% FBS (assay medium). The plates were incubated at 37° C., 5% CO2 for 24 hr. E05 and analogues were diluted in the assay medium and added to the respective wells of the assay plate. The plates were further incubated at 37° C., 5% CO2 for 24 hrs. After the incubation, the cell viability was assessed using CellTiter-Glo® and the plates were read for luminescence using Cytation 5 (Biotek). The relative luminescence unit (RLU) obtained was plotted against the concentration and EC50 values were estimated using Graphpad Prism 5 software (FIG. 15 and Table 2).

Activity (EC50) | EC50 (Homo sapiens) [µM] | Compound
Inactive | – | COc1ccc(C(=O)O)cc1O [E05_F, 3-Hydroxy-4-methoxy-benzoic acid (Isovamillic acid)]
– | 103 | Oc1ccccc1O [E05_E, 1,2-Dihydroxybenzene (Catechol)]
Inactive | – | O=C(O)CCc1cccc(O)c1 [E05_C, 3-(3-Hydoxyphenyl)-propionic acid]
Inactive | – | O=C(O)c1ccc(O)cc1O [E05_H, 2,4-Dihydroxybenzoic acid]
